Positions of bridges follow the written chain, without caps; N, C: chain ends. Non-standard residues stand in square brackets, D forms with d. Residues, ends and D or L forms follow the SMILES beside them. Nle = CCCC[C@H](N)C(=O)O
How the values were obtained:
[1] = system: HVEM/LIGHT interaction (NF-κB::eGFP activation); experiment: Cellular reporter assay: JE6.1-NF-κB::eGFP HVEM reporter cells stimulated with TCS LIGHT; assay type: cell-based; settings: relative to co-culture without peptides = 100%; highest tested concentration (50 µM chosen as highest); 24 h co-culture; three experiments in triplicate
Source text: Reporter cells expressing the HVEM protein (JE6.1-NF-κB::eGFP HVEM) and T cell stimulators expressing LIGHT (TCS LIGHT) were utilized in cellular assays and the principle of this cell-based assay has been described in detail in previous publication. In short, when the peptides inhibited the HVEM/LIGHT interaction, a reduction in NF-κB activation was observed, accompanied by a corresponding decrease in enhanced green fluorescent protein (eGFP) levels. The percentage of reporter cell activation was calculated relative to a control condition, which was reporter cell co-cultured with TCS without peptides.
The experiments utilized the JE6.1-NF-κB::eGFP HVEM (modified Jurkat), TCS LIGHT, TCS Crtl and TCS CD86 Ctrl cell lines (modified BW5147) which have been described in earlier studies^57,58. Jurkat E6.1 cell line (describe in Supplementary Materials) was purchased from Cell Line Service GmbH, while the JE6.1-NF-κB::eGFP HVEM, TCS LIGHT, TCS Crtl and TCS CD86 Ctrl cell lines are property of the laboratory of Prof. […] The plates were incubated for 20 min at 4 °C, washed with FACS buffer (PBS, 5–10% FBS, 0.1% NaN₃), and resuspended in 50 µL of fresh FACS buffer. eGFP expression was measured using a CytoFLEX flow cytometer (Beckman Coulter, USA). Data were analyzed using FlowJo v10.10 (FlowJo LLC, USA) and GraphPad Prism (San Diego, USA) with univariate ANOVA and Dunnett’s post-hoc test. […]

HVEM/LIGHT complex = experiment: Competitive ELISA, inhibition of HVEM/LIGHT complex formation; assay type: biochemical, human; settings: coated HVEM-His 6 µg/mL, LIGHT-Fc 2 µg/mL, highest concentration tested (50 µM)
Procedure: To assess the inhibitory properties of the peptides the ELISA was conducted. Based on the obtained results, it can be concluded that the inhibitory properties of the peptides are strongly correlated with their affinity to HVEM as determined by theoretical methods, as well as with those measured by SpS.
ELISA was conducted using transparent polystyrene 96-well plates (Brand, Wertheim, Germany). Wells were coated with HVEM-His protein at concentration 6 µg/mL dissolved in PBS-T (100 µL per well) and incubated overnight at 4 °C. Unbound sites on the wells by HVEM were blocked with 5% bovine serum albumin (BSA) in PBS-T (200 µL per well). Peptides at three concentrations 50 µM, 12.5 µM, and 3.125 µM dissolved in PBS-T were added and incubated (200 µL per well). […] In the next step horseradish peroxidase (HRP)-conjugated goat antibody (Bio-Rad, Hercules, USA) at dilution 1:3000 in PBS-T (100µL per well) was applied. After each step, wells were washed five times with 200 µL of PBS-T. Incubations were carried out at 37 °C for 2 h, except for the antibody, which was incubated for 1 h. Finally, 200 µL of TMB substrate (Thermo Fisher Scientific,Waltham, MA, USA) was added, and after 15 min of incubation in the dark, absorbance was measured at 492 nm and 650 nm using an Infinite M200 Pro reader (Tecan, Switzerland). The negative control consisted of PBS-T buffer without peptides, while the positive control was mouse anti-human HVEM antibodies (1 µg/well, Bio-Rad, Hercules, CA, USA; #MCA6072GA). Each experiment was performed in three biological replicates, each consisting of three technical replicates and data were analyzed using one-way ANOVA with Dunnett’s post-hoc test in GraphPad Prism (San Diego, USA).

[2] = Peptide stability in medium (Jurkat E6.1 cell supernatant); assay type: in vitro ADME; settings: human, Jurkat E6.1 cell supernatant (conditioned culture medium), Jurkat E6.1 cell supernatant (RPMI 1640, 10% FBS), 1.5 mg/mL peptide, 37 °C with stirring, RP-HPLC peak area vs peptide in water at time 0, triplicate
Procedure: The inhibitory effects of the peptides were also evaluated using cell line-based platform, but before performing this tests, the stability of peptides in medium used in co-culture and cytotoxicity towards cell lines used in the experiments had to be determined. After 24 h of incubation (the time when the peptides are incubated with cells), there is a clear difference in stability between peptides based on one of the interaction centres (light1 and 2 – stability is 88% and 77% respectively) and between those based on the other centre (light3, 4 and 3_E178L – stability ranging from 49% to 29%). However, all peptides, despite some degradation, are present in the sample during the experiment (Figure S5).
HVEM light1 light light light _E178L
Figure S8 . SpS binding check experiments for selected LIGHT-derived peptides and HVEM compared to negative control (HVEM protein without any ligand). Dotted line represents three times the standard deviation range. […]
experiments. […]
Peptide stability was assessed using the supernatant from the Jurkat E6.1 cell line. […] The samples were analyzed by reverse-phase high-performance liquid chromatography (RP-HPLC) on a Kromasil C8 column ([…] × 4.6 mm, 5 μm) using a gradient of 5% to 100% solvent B over 60 minutes. […]
The cytotoxic effects of the peptides were evaluated on two cell lines: Jurkat E6.1 and TCS-Ctrl (a modified BW5147 cell line). […]

SMILES	reporter cell activation level [1] [%]	inhibition of HVEM/LIGHT complex formation (HVEM/LIGHT complex) [%]	remaining at 24 h, 1.5 mg/mL [2] [%]
CC(=O)N[C@H](C(=O)N[C@H]1CSSC[C@@H](C(=O)N[C@@H](CO)C(N)=O)NC(=O)[C@H](CCC(N)=O)NC(=O)[C@H](CO)NC(=O)[C@H](C(C)C)NC(=O)[C@H](CC(C)C)NC(=O)[C@H](CC(C)C)NC(=O)[C@H](CCC(=O)O)NC(=O)[C@H](CC(C)C)NC(=O)[C@H](CCC(=O)O)NC(=O)[C@H](CCC(=O)O)NC(=O)[C@@H]2CCCN2C(=O)[C@H](Cc2ccc(O)cc2)NC(=O)[C@H](CCCNC(=N)N)NC(=O)[C@@H]2CCCN2C(=O)[C@H]([C@@H](C)O)NC(=O)[C@H](CCCNC(=N)N)NC(=O)[C@H](CCCCN)NC(=O)[C@H](Cc2ccc(O)cc2)NC(=O)[C@H](CC(C)C)NC(=O)CNC(=O)[C@H](Cc2c[nH]cn2)NC(=O)[C@H]([C@@H](C)O)NC1=O)[C@@H](C)O [light3] (Ac-TCTHGLYKRTPRYPEELELLVSQCS-NH2; disulfide 2-24)	78	22	–
CC(=O)N[C@@H](CCC(=O)O)C(=O)N[C@H]1CSSC[C@@H](C(=O)N[C@H](C(N)=O)C(C)C)NC(=O)[C@H](Cc2ccccc2)NC(=O)[C@H](C)NC(=O)CNC(=O)[C@H](Cc2ccccc2)NC(=O)[C@H](Cc2ccc(O)cc2)NC(=O)[C@H](CO)NC(=O)[C@H](CCCNC(=N)N)NC(=O)[C@H]([C@@H](C)O)NC(=O)CNC(=O)[C@H](CC(=O)O)NC(=O)[C@H](CCCNC(=N)N)NC(=O)[C@H](CC(C)C)NC(=O)[C@H](CCCNC(=N)N)NC(=O)[C@H](C(C)C)NC(=O)[C@H](CC(C)C)NC(=O)[C@H](CCCNC(=N)N)NC(=O)[C@H](CCC(=O)O)NC(=O)[C@H](CC(=O)O)NC(=O)[C@H](CC(C)C)NC(=O)[C@H](C(C)C)NC(=O)[C@H](CCCNC(=N)N)NC(=O)[C@H](C(C)C)NC(=O)[C@H](C(C)C)NC(=O)[C@H](C(C)C)NC(=O)[C@H](CCC(=O)O)NC(=O)[C@H](CCC(=O)O)NC(=O)CNC1=O [light2] (Ac-ECGEEVVVRVLDERLVRLRDGTRSYFGAFCV-NH2; disulfide 2-30)	–	–	77
CC(=O)N[C@H](C(=O)N[C@H]1CSSC[C@@H](C(=O)N[C@@H](CO)C(N)=O)NC(=O)[C@H](CCC(N)=O)NC(=O)[C@H](CO)NC(=O)[C@H](C(C)C)NC(=O)[C@H](CC(C)C)NC(=O)[C@H](CC(C)C)NC(=O)[C@H](CC(C)C)NC(=O)[C@H](CC(C)C)NC(=O)[C@H](CCC(=O)O)NC(=O)[C@H](CCC(=O)O)NC(=O)[C@@H]2CCCN2C(=O)[C@H](Cc2ccc(O)cc2)NC(=O)[C@H](CCCNC(=N)N)NC(=O)[C@@H]2CCCN2C(=O)[C@H]([C@@H](C)O)NC(=O)[C@H](CCCNC(=N)N)NC(=O)[C@H](CCCCN)NC(=O)[C@H](Cc2ccc(O)cc2)NC(=O)[C@H](CC(C)C)NC(=O)CNC(=O)[C@H](Cc2c[nH]cn2)NC(=O)[C@H]([C@@H](C)O)NC1=O)[C@@H](C)O [light3_E178L] (Ac-TCTHGLYKRTPRYPEELLLLVSQCS-NH2; disulfide 2-24)	74	19	–
CCCC[C@H](NC(=O)[C@H](Cc1ccccc1)NC(=O)[C@H](C)NC(=O)CNC(=O)[C@@H]1CSSC[C@H](NC(=O)[C@@H](NC(=O)[C@@H](NC(=O)[C@H](CCC(=O)O)NC(=O)[C@H](CCC(=O)O)NC(=O)CNC(=O)[C@H](C)NC(=O)[C@H](CCC(=O)O)NC(C)=O)C(C)C)C(C)C)C(=O)N[C@@H](CCCNC(=N)N)C(=O)N[C@@H](C(C)C)C(=O)N[C@@H](CC(C)C)C(=O)N[C@@H](CC(=O)O)C(=O)N[C@@H](CCC(=O)O)C(=O)N[C@@H](CCCNC(=N)N)C(=O)N[C@@H](CC(C)C)C(=O)N[C@@H](C(C)C)C(=O)N[C@@H](CCCNC(=N)N)C(=O)N[C@@H](CC(C)C)C(=O)N[C@@H](CCCNC(=N)N)C(=O)N[C@@H](CC(=O)O)C(=O)NCC(=O)N[C@@H]([C@@H](C)O)C(=O)N[C@@H](CCCNC(=N)N)C(=O)N[C@@H](CO)C(=O)N[C@@H](Cc2ccc(O)cc2)C(=O)N1)C(=O)N[C@H](C(N)=O)C(C)C [light1] (Ac-EAGEEVVCRVLDERLVRLRDGTRSYCGAF[Nle]V-NH2; disulfide 8-26)	–	–	88
